Three compounds from ChEMBL document CHEMBL2169885, “Synthesis and biological evaluation of optically active Ki16425” (Bioorg Med Chem Lett, 2012) can be followed below.

Active and inactive are the calls of the source. The calls are words filed in the database; no cut-off is given here.

Test [1] concerns the target Lysophosphatidic acid receptor 2 (Homo sapiens) (UniProt Q9HBW0). Briefly: Antagonist activity at human LPA2 receptor expressed in HEK293 cells assessed as inhibition of LPA-induced AP-TGF-alpha release treated 5 mins before LPA addition measured after 60 mins. Type of test: functional, cell-based.
The test system of a further test is PC-3. Briefly: Antagonist activity at LPA receptor in human PC3 cells assessed as inhibition of LPA-induced cell migration. It is filed as functional, cell-based.

Chain of Lysophosphatidic acid receptor 2 (Homo sapiens) (Q9HBW0 whole entry): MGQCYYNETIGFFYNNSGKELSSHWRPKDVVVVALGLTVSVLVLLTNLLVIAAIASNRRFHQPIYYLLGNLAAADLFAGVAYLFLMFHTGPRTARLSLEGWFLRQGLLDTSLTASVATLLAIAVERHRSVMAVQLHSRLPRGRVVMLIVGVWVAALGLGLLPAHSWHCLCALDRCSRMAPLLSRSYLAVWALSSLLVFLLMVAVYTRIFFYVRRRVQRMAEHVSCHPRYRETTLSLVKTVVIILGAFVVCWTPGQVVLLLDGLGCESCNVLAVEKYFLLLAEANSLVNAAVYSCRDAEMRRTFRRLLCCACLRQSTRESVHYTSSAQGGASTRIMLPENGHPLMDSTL

Take `Cc1noc(-c2ccc(CSCCC(=O)O)cc2)c1NC(=O)O[C@@H](C)c1ccccc1Cl`: the inhibition entry (in test [1]; in the test with PC-3) was “Active” in each case.

On to `Cc1noc(-c2ccc(CSCCC(=O)O)cc2)c1NC(=O)OC(C)c1ccccc1Cl` (racemic), for which the inhibition result (in test [1]; with PC-3) was “Active” each time.

Turning to `Cc1noc(-c2ccc(CSCCC(=O)O)cc2)c1NC(=O)O[C@H](C)c1ccccc1Cl`, the inhibition result (in test [1]; in the test on PC-3) was “Active” each time.
